In PubChem BioAssay (NCI) one finds TGI and GI50 data, which are given here for 12 compounds.

Structures are written as SMILES. “And” between values parts separate entries of the source, which are not always exact repeats. Identical values can stand only once.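 Briefly, cells in 96-well plates were exposed to five compound concentrations for 48 h, and endpoints were estimated by linear interpolation. The concentration for 50% growth inhibition is given as GI50. The concentration for full growth arrest is given as TGI.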

Among the test systems are HL-60(TB) leukemia; A498 renal; KM12 colon; ACHN renal; MOLT-4 leukemia; NCI/ADR-RES ovarian; NCI-H460 lung; IGROV1 ovarian; UACC-62 melanoma; UO-31 renal.
Assay in all cases: NCI anticancer screen, dose series, 48 h

With `C/C=C1/CC(C)C(C)(O)C(=O)OCC2C(O)CN3CCC(OC1=O)C23` (stereo not drawn), the TGI with HL-60(TB) leukemia, with A498 renal, in the test with KM12 colon, in the test on ACHN renal, in the test with MOLT-4 leukemia and with NCI/ADR-RES ovarian was greater than 100 µM each time. Also, the TGI with NCI-H460 lung, with IGROV1 ovarian and in the test on UACC-62 melanoma was greater than 100 µM throughout.

Take `O=C1O/C(=C/c2ccccc2)C(c2ccccc2)=C1O`: the TGI is 88.1 µM in the test with UO-31 renal; 48.3 µM in the test with HL-60(TB) leukemia; 85.6 µM in the test with A498 renal; greater than 100 µM with KM12 colon; greater than 100 µM with ACHN renal; greater than 100 µM with MOLT-4 leukemia. In addition, the TGI in the test on NCI/ADR-RES ovarian was greater than 100 µM; in the test on IGROV1 ovarian it was greater than 100 µM; with UACC-62 melanoma, 33.8 µM.

As for `CC(C)CCCCCCCCCCCCC(=O)NCC(=O)NC1C(O)C(O)C(Nc2ncnc3nc[nH]c23)OC1C(O)CO` (stereo not drawn), the GI50 was 0.005 µM in the test with UO-31 renal; 0.005 µM with A498 renal; less than 1e-05 µM in the test with ACHN renal; 0.005 µM in the test on IGROV1 ovarian; less than 1e-05 µM in the test with UACC-62 melanoma. In addition, the TGI was 0.00451 µM and 0.0075 µM in the test on UO-31 renal; 0.0123 µM and 0.0132 µM with A498 renal; 0.0479 µM and 0.0235 µM in the test on KM12 colon; 0.153 µM and 0.43 µM with MOLT-4 leukemia; 0.124 µM and 0.0422 µM in the test with NCI/ADR-RES ovarian; 0.00755 µM and 0.0084 µM in the test on IGROV1 ovarian.

As to `O=C1/C(=C/c2ccc(Cl)cc2)CNC/C1=C\c1ccc(Cl)cc1`, the GI50 is 1.62 µM and 3.48 µM in the test with UO-31 renal; 2.42 µM and 9.41 µM in the test with HL-60(TB) leukemia. Besides, the TGI in the test with UO-31 renal is 2.98 µM and 6.5 µM; with A498 renal it was 5.01 µM and 25.6 µM; in the test with KM12 colon, 3.07 µM; in the test with ACHN renal it was 4.17 µM and 7.08 µM; in the test on NCI/ADR-RES ovarian, 9.61 µM; in the test with IGROV1 ovarian, 4.15 µM and 3.49 µM. This compound returned a TGI with UACC-62 melanoma greater than 19.9 µM.

In the case of `O=C(c1ccc(Cl)cc1)C(O)c1ccc(Cl)cc1` (stereo not drawn), the TGI in the test on UO-31 renal is greater than 100 µM; in the test with HL-60(TB) leukemia it was 82.7 µM; in the test on KM12 colon it was greater than 100 µM; in the test with ACHN renal, greater than 100 µM; in the test with MOLT-4 leukemia, 75.6 µM; in the test on NCI/ADR-RES ovarian, greater than 100 µM. The TGI in the test with NCI-H460 lung, in the test on IGROV1 ovarian and with UACC-62 melanoma was greater than 100 µM each time.

With `CN1CCN(C(=O)COc2ccc(/C=C3\CC4C5CC=C6CC(Cl)CCC6(C)C5CCC4(C)C3=O)cc2)CC1` (stereo not drawn), the GI50 with UO-31 renal, in the test on A498 renal, with ACHN renal, in the test on NCI/ADR-RES ovarian, in the test on IGROV1 ovarian and in the test on UACC-62 melanoma was greater than 100 µM each time. Moreover, the TGI with UO-31 renal, with A498 renal, with ACHN renal, with NCI/ADR-RES ovarian, with IGROV1 ovarian and with UACC-62 melanoma was greater than 100 µM in each case.

Take `Cn1c2c(c3ccccc31)CCN1C(=O)CCC21` (stereo not drawn): the TGI with UO-31 renal, with HL-60(TB) leukemia, in the test on A498 renal, in the test on KM12 colon, in the test with ACHN renal and in the test with MOLT-4 leukemia was greater than 10 µM throughout. Further, the TGI in the test on NCI/ADR-RES ovarian, in the test with NCI-H460 lung and in the test on IGROV1 ovarian was greater than 10 µM throughout.

For the compound `Cc1cc(C)c(-c2c(N)cc(Br)cc2Br)c(N)c1`, the GI50 in the test with UO-31 renal was 5.4 µM; in the test with A498 renal it was 2.35 µM; in the test on KM12 colon, 3.89 µM; in the test with ACHN renal, 10 µM; in the test on NCI/ADR-RES ovarian, 2.98 µM; in the test with NCI-H460 lung, 4.5 µM. Also, the GI50 with IGROV1 ovarian is 6.13 µM; in the test with UACC-62 melanoma, 4.3 µM. Moreover, the TGI was found to be 20 µM with UO-31 renal; 14.4 µM in the test on A498 renal; 14.5 µM in the test on KM12 colon; 22.8 µM in the test with ACHN renal; 9.11 µM in the test on NCI/ADR-RES ovarian; 16.7 µM with NCI-H460 lung. Further, the TGI in the test on IGROV1 ovarian was found to be 22.7 µM; in the test with UACC-62 melanoma it was 17.2 µM.

As for `O=c1c(Cl)c(Cl)cnn1CCCl`, the TGI came to 10.7 µM in the test with UO-31 renal; 5.58 µM in the test with HL-60(TB) leukemia; 29 µM in the test on A498 renal; 29.7 µM in the test on KM12 colon; 2.35 µM in the test with ACHN renal; 7.46 µM in the test on MOLT-4 leukemia. Moreover, the TGI with NCI-H460 lung is 23.1 µM; with IGROV1 ovarian, 3.85 µM; in the test on UACC-62 melanoma, 8.25 µM.

On to `Cc1cn(Cc2ccc(C34CC5CC(CC(C5)C3)C4)c(O)c2)c(=O)[nH]c1=O`, for which the GI50 in the test with UO-31 renal is 11.6 µM; in the test with HL-60(TB) leukemia it was 2.73 µM; with A498 renal, 4.33 µM; in the test with KM12 colon it was 11.4 µM; in the test on ACHN renal it was 10.8 µM; in the test with MOLT-4 leukemia it was 7.5 µM. The GI50 is 11.3 µM in the test on NCI/ADR-RES ovarian, 12.6 µM with NCI-H460 lung and 7.34 µM with UACC-62 melanoma. Also, the TGI worked out at 23.8 µM in the test on UO-31 renal; 6.53 µM in the test with HL-60(TB) leukemia; 17.8 µM with A498 renal; 26.2 µM with KM12 colon; 24.3 µM in the test on ACHN renal; 27.5 µM in the test with MOLT-4 leukemia. Moreover, the TGI in the test with NCI/ADR-RES ovarian was determined as 27.2 µM; in the test with NCI-H460 lung it was 42.3 µM; with UACC-62 melanoma, 20.4 µM.

Turning to `Cc1cc2c(-c3nc4ccccn4c3N)c(O)c(O)cc2c(O)c1-c1c(C)cc2c(-c3nc4ccccn4c3N)c(O)c(O)cc2c1O`, the GI50 is 1.12 µM in the test on UO-31 renal; 1.64 µM in the test with HL-60(TB) leukemia; 0.227 µM in the test with KM12 colon; 1.63 µM in the test with ACHN renal; 1.01 µM in the test with MOLT-4 leukemia; 4.49 µM with NCI/ADR-RES ovarian. The GI50 in the test on NCI-H460 lung is 0.103 µM; in the test on IGROV1 ovarian, 1.36 µM; in the test with UACC-62 melanoma, 0.723 µM. In addition, the TGI in the test on UO-31 renal, in the test with HL-60(TB) leukemia, with KM12 colon, in the test with ACHN renal, with MOLT-4 leukemia and with NCI/ADR-RES ovarian was greater than 25 µM in each case. For the same compound, the TGI with NCI-H460 lung is 3.11 µM; with IGROV1 ovarian, greater than 25 µM; in the test on UACC-62 melanoma it was 7.05 µM.

Regarding `N#CC(C(=O)/C(=N\NC(N)=O)C(C#N)c1ccccc1)c1ccccc1` (stereo not drawn), the TGI in the test on UO-31 renal, in the test with HL-60(TB) leukemia, in the test with A498 renal, in the test on KM12 colon, in the test on ACHN renal and in the test on MOLT-4 leukemia was greater than 100 µM each time. The TGI in the test with NCI-H460 lung, in the test with IGROV1 ovarian and in the test on UACC-62 melanoma was greater than 100 µM in each case.
